Our source for the IC50 values is patent EP1377579B1 (Aventis Pharmaceuticals Inc., priority 2000, dated 2002).

In general, IC50 refers to the midpoint of a concentration-inhibition curve.

One test has as its system MDA-MB-435. The experiment in a line: In vitro proliferation assay (MTT), MDA-MB-435. It is filed as cell-based, human. Conditions: Homo sapiens, MDA-MB-435, MTT assay; value (SD, n) where given; read-out: MB-435 Breast (IC50 µM). An outline of the steps:
(§1)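 Step one: plate 1000 to 2500 cells per well and let them recover overnight. Step two: treat with compound for 3 days. Step three: add MTT, dissolve dye in DMSO, read absorbance at 570 nm and determine IC50.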
For orientation: Tetrazolium assays rely on reduction of a dye to a coloured formazan, in cell work by metabolically active cells.

The target of another test is cdk2/cyclin E (Homo sapiens, UniProt P24941). The experiment in a line: Cyclin-dependent kinase assay, cdk2/cyclin E. Conditions: CDK2 IC50, nM, GST-pRb substrate, 10 µM ATP.
In a further test the test system is PC-3. The experiment in a line: In vitro proliferation assay (MTT), PC-3. Type of test: cell-based, human. The following applies: Homo sapiens, PC-3, MTT assay; value (SD, n) where given; read-out: PC-3 Prostate (IC50 µM). An outline of the steps:
as §1

The next test deals with cdk1/cyclin B (Homo sapiens, UniProt P06493). The experiment in a line: Cyclin-dependent kinase assay, cdk1/cyclin B. Conditions: CDK1 IC50, nM, Histone H1, 10 µM ATP.
In the next test the target is cdk4/cyclin D1 (Homo sapiens, UniProt P11802). Nature of the test: Cyclin-dependent kinase assay, cdk4/cyclin D1. Type of test: biochemical. The following applies: cyclin D1/cdk4; GST-pRb substrate, 10 µM ATP.

Where a name gives a salt, the structure may show the parent alone.

Chain of cdk4/cyclin D1 (P11802 whole entry): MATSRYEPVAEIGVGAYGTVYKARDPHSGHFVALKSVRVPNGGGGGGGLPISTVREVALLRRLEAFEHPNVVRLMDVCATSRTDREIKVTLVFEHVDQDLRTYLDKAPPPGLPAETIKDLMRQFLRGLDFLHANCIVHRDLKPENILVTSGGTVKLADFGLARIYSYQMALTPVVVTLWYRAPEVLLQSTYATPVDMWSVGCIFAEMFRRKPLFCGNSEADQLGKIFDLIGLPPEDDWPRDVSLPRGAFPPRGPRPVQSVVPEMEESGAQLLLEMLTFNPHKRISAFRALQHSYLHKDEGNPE
Chain of cdk4/cyclin D1 (P24385 whole entry partner): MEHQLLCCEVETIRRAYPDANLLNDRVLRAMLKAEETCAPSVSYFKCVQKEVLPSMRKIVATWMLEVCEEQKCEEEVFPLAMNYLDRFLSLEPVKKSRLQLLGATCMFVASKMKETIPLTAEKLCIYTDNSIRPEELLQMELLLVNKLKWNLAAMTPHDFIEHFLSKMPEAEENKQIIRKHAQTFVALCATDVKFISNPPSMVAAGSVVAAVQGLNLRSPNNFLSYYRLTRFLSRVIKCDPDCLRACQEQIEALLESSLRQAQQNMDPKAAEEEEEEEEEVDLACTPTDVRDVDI
Chain of cdk1/cyclin B (P06493 whole entry): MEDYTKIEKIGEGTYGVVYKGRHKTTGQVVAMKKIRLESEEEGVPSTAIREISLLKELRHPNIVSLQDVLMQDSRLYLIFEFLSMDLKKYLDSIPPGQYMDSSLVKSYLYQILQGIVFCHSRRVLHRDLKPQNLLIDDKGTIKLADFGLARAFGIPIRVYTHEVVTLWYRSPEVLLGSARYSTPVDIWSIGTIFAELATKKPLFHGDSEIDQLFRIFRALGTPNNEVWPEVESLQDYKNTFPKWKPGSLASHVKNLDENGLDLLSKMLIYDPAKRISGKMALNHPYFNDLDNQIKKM
Chain of cdk1/cyclin B (P14635 whole entry partner): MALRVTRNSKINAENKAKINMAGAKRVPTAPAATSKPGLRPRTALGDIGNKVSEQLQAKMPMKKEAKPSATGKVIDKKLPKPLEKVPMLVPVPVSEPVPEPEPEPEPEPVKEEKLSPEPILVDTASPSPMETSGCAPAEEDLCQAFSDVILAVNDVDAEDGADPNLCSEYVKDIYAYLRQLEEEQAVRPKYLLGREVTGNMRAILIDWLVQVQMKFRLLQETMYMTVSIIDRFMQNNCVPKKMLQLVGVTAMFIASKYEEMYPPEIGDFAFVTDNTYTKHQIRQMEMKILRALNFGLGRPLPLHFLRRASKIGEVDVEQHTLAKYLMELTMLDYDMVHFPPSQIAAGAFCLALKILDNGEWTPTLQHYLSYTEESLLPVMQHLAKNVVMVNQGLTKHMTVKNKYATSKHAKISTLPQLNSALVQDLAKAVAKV

Turning to `N[C@H]1CC[C@H](Nc2nc(NC3CCN(C(=O)c4c(Cl)cccc4Cl)CC3)c3ncn(C4CCCC4)c3n2)CC1` [compound 14, trans-1-{4-[2-(4-Amino-cyclohexylamino)-9-cyclopentyl-9H-purin-6-ylamino]-piperidin-1-yl}-1-(2,6-dichloro-phenyl)-methanone], the IC50 came to 2.98 µM in the test with MDA-MB-435; 514 nM at cdk2/cyclin E; 2.99 µM in the test with PC-3; 164 nM on cdk1/cyclin B; 17 nM at cdk4/cyclin D1.
In the case of `N[C@H]1CC[C@H](Nc2nc(NC3CCN(C(=O)C4CCCC4)CC3)c3ncn(C4CCCC4)c3n2)CC1` [compound 39, trans-1-{4-[2-(4-Amino-cyclohexylamino)-9-cyclopentyl-9H-purin-6-ylamino]-piperidin-1-yl}-1-cyclopentyl-methanone], the IC50 was found to be 0.51 µM in the test with MDA-MB-435; 51 nM against cdk2/cyclin E; 0.61 µM in the test with PC-3; 66 nM against cdk1/cyclin B; 664 nM against cdk4/cyclin D1.
For `N#Cc1ccc(C(=O)N2CCC(Nc3nc(N[C@H]4CC[C@H](N)CC4)nc4c3ncn4C3CCCC3)CC2)cc1` [compound 25, trans-1-{4-[2-(4-Amino-cyclohexylamino)-9-cyclopentyl-9H-purin-6-ylamino]-piperidin-1-yl}-1-(4-cyano-phenyl)-methanone], in that order: 3.76 µM, 79 nM, 2.72 µM, 56 nM and 629 nM.
For `CCCCCCc1ccc(C(=O)N2CCC(Nc3nc(N[C@H]4CC[C@H](N)CC4)nc4c3ncn4C3CCCC3)CC2)cc1` [compound 23, trans-1-{4-[2-(4-Amino-cyclohexylamino)-9-cyclopentyl-9H-purin-6-ylamino]-piperidin-1-yl}-1-(4-hexyl-phenyl)-methanone], the IC50 in the test on MDA-MB-435 stood at 1.08 µM; on cdk2/cyclin E it was 596 nM; with PC-3 it was 2.27 µM; on cdk1/cyclin B it was 300 nM; against cdk4/cyclin D1, 629 nM.
`N[C@H]1CC[C@H](Nc2nc(NC3CCN(S(=O)(=O)c4ccc(OC(F)(F)F)cc4)CC3)c3ncn(C4CCCC4)c3n2)CC1` [compound 134, trans-N^2-(4-Amino-cyclohexyl)-9-cyclopentyl-N^6-[1-(4-trifluoromethoxy-benzenesulfonyl)-piperidin-4-yl]-9H-purine-2,6-diamine dihydrochloride]: the IC50 was 0.46 µM with MDA-MB-435; 35 nM at cdk2/cyclin E; 0.76 µM with PC-3; 200 nM on cdk1/cyclin B; 84 nM on cdk4/cyclin D1.
Regarding `N[C@H]1CC[C@H](Nc2nc(NC3CCN(C(=O)Nc4cc(C(F)(F)F)cc(C(F)(F)F)c4)CC3)c3ncn(C4CCCC4)c3n2)CC1` [compound 176, trans-4-[2-(4-Amino-cyclohexylamino)-9-cyclopentyl-9H-purin-6-ylamino]-piperidine-1-carboxylic acid (3,5-bis-trifluoromethyl-phenyl)-amide dihydrochloride], the IC50 in the test on MDA-MB-435 was 0.51 µM; on cdk2/cyclin E, 378 nM; in the test on PC-3 it was 0.54 µM; on cdk1/cyclin B, 7 nM; against cdk4/cyclin D1, 898 nM.
With `COc1ccc(CC(=O)N2CCC(Nc3nc(N[C@H]4CC[C@H](N)CC4)nc4c3ncn4C3CCCC3)CC2)cc1` [compound 42, trans-1-{4-[2-(4-Amino-cyclohexylamino)-9-cyclopentyl-9H-purin-6-ylamino]-piperidin-1-yl}-2-(4-methoxy-phenyl)-ethanone dihydrochloride], the IC50 in the test on MDA-MB-435 is 1.1 µM; on cdk2/cyclin E, 51 nM; with PC-3, 1.06 µM; on cdk1/cyclin B it was 21 nM; against cdk4/cyclin D1, 103 nM.
As for `COc1ccc(S(=O)(=O)N2CCC(Nc3nc(N[C@H]4CC[C@H](N)CC4)nc4c3ncn4C3CCCC3)CC2)cc1OC` [compound 137, trans-N^2-(4-Amino-cyclohexyl)-9-cyclopentyl-N^6-[1-(3,4-dimethoxy-benzenesulfonyl)-piperidin-4-yl]-9H-purine-2,6-diamine dihydrochloride], the IC50 in the test on MDA-MB-435 was found to be 0.47 µM; on cdk2/cyclin E, 7 nM; in the test on PC-3 it was 1.15 µM; against cdk1/cyclin B, 26 nM; at cdk4/cyclin D1, 144 nM.
Consider `N[C@H]1CC[C@H](Nc2nc(NC3CCN(C(=O)c4ccncc4)CC3)c3ncn(C4CCCC4)c3n2)CC1` [compound 68, trans-1-{4-[2-(4-Amino-cyclohexylamino)-9-cyclopentyl-9H-purin-6-ylamino]-piperidin-1-yl}-1-pyridin-4-yl-methanone], for which the IC50 came to 21 µM in the test with MDA-MB-435; 84 nM at cdk2/cyclin E; 16 µM in the test with PC-3; 136 nM at cdk1/cyclin B; 1440 nM against cdk4/cyclin D1.
Regarding `Cc1ccc(C(=O)N2CCC(Nc3nc(N[C@H]4CC[C@H](N)CC4)nc4c3ncn4C3CCCC3)CC2)cc1` [compound 77, trans-1-{4-[2-(4-Amino-cyclohexylamino)-9-cyclopentyl-9H-purin-6-ylamino]-piperidin-1-yl}-1-(4-methyl-phenyl)-methanone], the IC50 with MDA-MB-435 was 1.03 µM; against cdk2/cyclin E, 71 nM; in the test with PC-3 it was 1.19 µM; on cdk1/cyclin B, 100 nM; against cdk4/cyclin D1, 606 nM.
Turning to `CCS(=O)(=O)N1CCC(Nc2nc(N[C@H]3CC[C@H](N)CC3)nc3c2ncn3C2CCCC2)CC1` [compound 139, trans-N^2-(4-Amino-cyclohexyl)-9-cyclopentyl-N^6-(1-ethanesulfonyl-piperidin-4-yl)-9H-purine-2,6-diamine dihydrochloride], the IC50 with MDA-MB-435 was determined as 1.19 µM; on cdk2/cyclin E, 6 nM; in the test on PC-3, 1.13 µM; against cdk1/cyclin B, 23 nM; against cdk4/cyclin D1 it was 64 nM.
Consider `COc1cccc(NC(=O)N2CCC(Nc3nc(N[C@H]4CC[C@H](N)CC4)nc4c3ncn4C3CCCC3)CC2)c1` [compound 155, trans-4-[2-(4-Amino-cyclohexylamino)-9-cyclopentyl-9H-purin-6-ylamino]-piperidine-1-carboxylic acid (3-methoxy-phenyl)-amide dihydrochloride], for which the IC50 with MDA-MB-435 worked out at 0.33 µM; on cdk2/cyclin E, 43 nM; with PC-3, 0.44 µM; on cdk1/cyclin B, 20 nM; against cdk4/cyclin D1 it was 482 nM.
Consider `CC(C)(C)NC(=O)N1CCC(Nc2nc(N[C@H]3CC[C@H](N)CC3)nc3c2ncn3C2CCCC2)CC1` [compound 192, trans-4-[2-(4-Amino-cyclohexylamino)-9-cyclopentyl-9H-purin-6-ylamino]-piperidine-1-carboxylic acid tert-butyl-amide dihydrochloride], for which the IC50 came out at 1.49 µM in the test on MDA-MB-435; 237 nM at cdk2/cyclin E; 1.89 µM with PC-3; 1000 nM on cdk1/cyclin B; 400 nM on cdk4/cyclin D1.
Turning to `Cc1cccc(Cl)c1NC(=O)N1CCC(Nc2nc(N[C@H]3CC[C@H](N)CC3)nc3c2ncn3C2CCCC2)CC1` [compound 196, trans-4-[2-(4-Amino-cyclohexylamino)-9-cyclopentyl-9H-purin-6-ylamino]-piperidine-1-carboxylic acid (2-chloro-6-methyl-phenyl)-amide dihydrochloride], the concentration for half-maximal inhibition (IC50) was 0.5 µM in the test with MDA-MB-435; 2 nM against cdk2/cyclin E; 0.59 µM in the test with PC-3; 350 nM against cdk1/cyclin B; 6 nM against cdk4/cyclin D1.
For `COc1cc(OC)cc(C(=O)N2CCC(Nc3nc(N[C@H]4CC[C@H](N)CC4)nc4c3ncn4C3CCCC3)CC2)c1` [compound 17, trans-1-{4-[2-(4-Amino-cyclohexylamino)-9-cyclopentyl-9H-purin-6-ylamino]-piperidin-1-yl}-1-(3,5-dimethoxy-phenyl)-methanone], in that order: 2.22 µM, 189 nM, 1.82 µM, 89 nM and 467 nM.
With `CCCCC(=O)N1CCC(Nc2nc(N[C@H]3CC[C@H](N)CC3)nc3c2ncn3C2CCCC2)CC1` [compound 56, trans-1-{4-[2-(4-Amino-cyclohexylamino)-9-cyclopentyl-9H-purin-6-ylamino]-piperidin-1-yl}-pentan-1-one dihydrochloride], the IC50 in the test with MDA-MB-435 stood at 0.61 µM; against cdk2/cyclin E it was 53 nM; with PC-3, 0.69 µM; against cdk1/cyclin B, 43 nM; at cdk4/cyclin D1 it was 909 nM.
Take `CC(C)(C)c1ccc(S(=O)(=O)N2CCC(Nc3nc(N[C@H]4CC[C@H](N)CC4)nc4c3ncn4C3CCCC3)CC2)cc1` [compound 130, trans-N^2-(4-Amino-cyclohexyl)-N^6-[1-(4-tert-butyl-benzenesulfonyl)-piperidin-4-yl]-9-cyclopentyl-9H-purine-2,6-diamine dihydrochloride]: the IC50 in the test on MDA-MB-435 was 0.8 µM; on cdk2/cyclin E it was 53 nM; with PC-3, 2.29 µM; at cdk1/cyclin B it was 8 nM; against cdk4/cyclin D1 it was 159 nM.
For `COc1cc(NC(=O)N2CCC(Nc3nc(N[C@H]4CC[C@H](N)CC4)nc4c3ncn4C3CCCC3)CC2)cc(OC)c1OC` [compound 198, trans-4-[2-(4-Amino-cyclohexylamino)-9-cyclopentyl-9H-purin-6-ylamino]-piperidine-1-carboxylic acid (3,4,5-trimethoxy-phenyl)-amide dihydrochloride], the IC50 came out at 2.85 µM in the test on MDA-MB-435; 20 nM against cdk2/cyclin E; 31.8 µM in the test on PC-3; 40 nM against cdk1/cyclin B; 7 nM on cdk4/cyclin D1.
